# Measurements as given in PMC4120670 (Kidney International, 2014).
# What was measured:
# OAT2 = target: T1, OAT2 (Homo sapiens, UniProt Q9Y694); assay: Inhibition of OAT2 transport of 3′,5′-cyclic GMP; format: cell-based
# T1 sequence (Q9Y694 1-548): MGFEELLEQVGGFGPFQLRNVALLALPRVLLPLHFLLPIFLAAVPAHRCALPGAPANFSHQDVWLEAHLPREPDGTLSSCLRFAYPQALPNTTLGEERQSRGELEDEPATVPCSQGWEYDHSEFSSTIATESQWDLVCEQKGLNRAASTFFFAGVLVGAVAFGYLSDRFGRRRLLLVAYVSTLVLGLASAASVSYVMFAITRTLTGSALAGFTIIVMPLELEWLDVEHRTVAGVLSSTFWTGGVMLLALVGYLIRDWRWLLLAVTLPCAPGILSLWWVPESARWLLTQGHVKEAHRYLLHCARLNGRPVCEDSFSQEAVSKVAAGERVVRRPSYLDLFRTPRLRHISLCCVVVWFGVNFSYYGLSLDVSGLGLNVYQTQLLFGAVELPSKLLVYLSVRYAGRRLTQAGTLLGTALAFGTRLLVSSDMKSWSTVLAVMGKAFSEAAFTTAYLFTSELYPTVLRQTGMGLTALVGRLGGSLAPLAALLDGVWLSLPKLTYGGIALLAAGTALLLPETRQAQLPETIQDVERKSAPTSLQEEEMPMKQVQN
# OCT2 [1] = target: T2, OCT2 (Homo sapiens, UniProt O15244); assay: Inhibition of OCT2 transport of tetraethylammonium; format: cell-based
# T2 sequence (O15244 1-555): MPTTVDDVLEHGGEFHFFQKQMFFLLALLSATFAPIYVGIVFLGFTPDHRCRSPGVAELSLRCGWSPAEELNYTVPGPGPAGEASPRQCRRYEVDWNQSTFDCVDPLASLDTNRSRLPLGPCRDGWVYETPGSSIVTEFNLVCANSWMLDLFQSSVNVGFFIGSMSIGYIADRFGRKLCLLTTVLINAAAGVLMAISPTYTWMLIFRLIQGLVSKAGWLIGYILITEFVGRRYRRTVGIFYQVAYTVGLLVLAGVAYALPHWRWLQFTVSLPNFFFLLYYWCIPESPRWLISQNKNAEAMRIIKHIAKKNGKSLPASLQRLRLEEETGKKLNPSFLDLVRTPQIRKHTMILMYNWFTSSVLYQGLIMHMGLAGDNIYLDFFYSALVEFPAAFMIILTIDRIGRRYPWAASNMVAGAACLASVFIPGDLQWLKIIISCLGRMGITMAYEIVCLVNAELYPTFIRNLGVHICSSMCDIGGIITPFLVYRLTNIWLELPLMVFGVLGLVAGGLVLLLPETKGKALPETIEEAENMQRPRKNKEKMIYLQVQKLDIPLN
# OCT3 = target: T3, OCT3 (Homo sapiens, UniProt O75751); assay: Inhibition of OCT3 transport of 1-methyl-4-phenylpyridinium; format: cell-based; settings: for Concentration-dependent inhibition of OCT3-dependent transport: model substrate, curve could not be generated
# T3 sequence (O75751 1-556): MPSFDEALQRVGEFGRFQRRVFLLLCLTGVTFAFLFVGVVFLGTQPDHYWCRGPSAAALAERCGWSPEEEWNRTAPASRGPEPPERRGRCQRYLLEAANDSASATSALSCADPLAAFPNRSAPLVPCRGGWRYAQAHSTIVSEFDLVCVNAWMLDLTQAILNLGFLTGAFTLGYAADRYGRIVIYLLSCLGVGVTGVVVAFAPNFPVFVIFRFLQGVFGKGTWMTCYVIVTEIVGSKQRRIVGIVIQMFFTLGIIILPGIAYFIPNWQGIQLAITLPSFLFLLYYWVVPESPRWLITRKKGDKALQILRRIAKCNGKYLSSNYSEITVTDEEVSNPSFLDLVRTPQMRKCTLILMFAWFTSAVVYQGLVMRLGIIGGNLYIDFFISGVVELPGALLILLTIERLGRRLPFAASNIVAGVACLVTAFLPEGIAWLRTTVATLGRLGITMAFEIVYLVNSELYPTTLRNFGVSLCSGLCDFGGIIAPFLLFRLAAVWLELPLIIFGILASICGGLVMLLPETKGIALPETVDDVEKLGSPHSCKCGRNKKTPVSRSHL
# MATE1 [2] = target: T4, MATE1 (Homo sapiens, UniProt Q96FL8); assay: Inhibition of MATE1 transport of tetraethylammonium; format: cell-based
# T4 sequence (Q96FL8 1-570): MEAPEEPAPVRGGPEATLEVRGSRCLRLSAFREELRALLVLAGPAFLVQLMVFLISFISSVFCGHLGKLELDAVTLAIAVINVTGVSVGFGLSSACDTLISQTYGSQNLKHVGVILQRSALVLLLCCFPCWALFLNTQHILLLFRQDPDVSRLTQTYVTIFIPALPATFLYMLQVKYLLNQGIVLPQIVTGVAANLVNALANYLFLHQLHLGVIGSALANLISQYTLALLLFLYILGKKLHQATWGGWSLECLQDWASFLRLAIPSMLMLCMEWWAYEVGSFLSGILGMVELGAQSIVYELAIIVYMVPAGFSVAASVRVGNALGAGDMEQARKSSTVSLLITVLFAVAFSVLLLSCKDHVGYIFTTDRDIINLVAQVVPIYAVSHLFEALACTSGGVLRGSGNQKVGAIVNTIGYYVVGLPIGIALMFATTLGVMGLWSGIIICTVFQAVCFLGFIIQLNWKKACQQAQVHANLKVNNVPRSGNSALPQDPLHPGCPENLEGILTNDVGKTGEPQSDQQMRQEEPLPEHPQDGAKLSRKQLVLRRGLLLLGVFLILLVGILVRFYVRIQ
# MATE2-K [3] = target: MATE2-K (Homo sapiens, UniProt Q86VL8); assay: Inhibition of MATE2-K transport of tetraethylammonium; format: cell-based
# Chain of MATE2-K (Homo sapiens, UniProt Q86VL8) (Q86VL8 1-566 isoform Q86VL8-3): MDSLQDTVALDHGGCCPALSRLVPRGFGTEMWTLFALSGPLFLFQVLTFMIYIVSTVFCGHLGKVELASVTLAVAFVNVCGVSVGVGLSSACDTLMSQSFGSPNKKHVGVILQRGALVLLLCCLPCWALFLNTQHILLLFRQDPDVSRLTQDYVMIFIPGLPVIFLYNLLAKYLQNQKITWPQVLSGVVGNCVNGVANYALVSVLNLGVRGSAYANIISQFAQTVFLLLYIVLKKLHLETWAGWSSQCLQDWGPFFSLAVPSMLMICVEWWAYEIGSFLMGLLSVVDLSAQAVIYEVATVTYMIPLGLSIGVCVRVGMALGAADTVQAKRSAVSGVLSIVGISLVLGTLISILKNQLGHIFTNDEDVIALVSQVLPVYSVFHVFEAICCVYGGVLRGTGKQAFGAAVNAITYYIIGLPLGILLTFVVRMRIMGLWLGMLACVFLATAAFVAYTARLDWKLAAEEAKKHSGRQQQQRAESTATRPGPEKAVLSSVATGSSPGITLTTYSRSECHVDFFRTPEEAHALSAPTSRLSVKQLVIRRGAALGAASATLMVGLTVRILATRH
# MATE1 [4] = target: T4, MATE1; assay: Inhibition of MATE1-mediated creatinine transport; format: cell-based
# OCT2 [5] = target: T2, OCT2; assay: Cobicistat uptake in MDCKII cells transfected with OCT2; format: cell-based; settings: cobicistat 1 μmol/l; vs nontransfected MDCKII cells; 5% bovine serum albumin
# [6] = test system: human primary proximal tubule cells; assay: Cobicistat uptake in fresh isolated primary proximal tubule cells; format: cell-based; settings: cobicistat 1 μmol/l; cimetidine 1500 μmol/l or probenecid 90 μmol/l
# OAT3 = target: T5, OAT3 (Homo sapiens, UniProt Q8TCC7); settings: cobicistat 1 μmol/l; HEK293; diclofenac or probenecid 90 μmol/l
# T5 sequence (Q8TCC7 1-542): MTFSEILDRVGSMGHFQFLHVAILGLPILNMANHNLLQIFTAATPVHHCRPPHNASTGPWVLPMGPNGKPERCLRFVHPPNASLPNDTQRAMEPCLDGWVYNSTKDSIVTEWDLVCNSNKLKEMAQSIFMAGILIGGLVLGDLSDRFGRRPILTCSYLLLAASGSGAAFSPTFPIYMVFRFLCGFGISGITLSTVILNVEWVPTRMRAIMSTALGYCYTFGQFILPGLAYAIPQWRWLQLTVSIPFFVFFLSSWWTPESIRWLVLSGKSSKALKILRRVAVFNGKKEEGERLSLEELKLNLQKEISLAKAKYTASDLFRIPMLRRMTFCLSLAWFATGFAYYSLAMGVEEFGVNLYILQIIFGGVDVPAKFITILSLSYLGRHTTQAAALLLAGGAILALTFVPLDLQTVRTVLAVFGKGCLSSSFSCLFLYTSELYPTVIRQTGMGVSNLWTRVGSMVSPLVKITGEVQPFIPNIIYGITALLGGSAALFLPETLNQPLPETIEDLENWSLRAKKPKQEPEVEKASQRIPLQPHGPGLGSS
# [7] = more modest effects, clinical; cited from earlier work
# [8] = cited from earlier work
# [9] = clinical plasma concentration; cited from earlier work
# OCT2 [10] = target: T2, OCT2; assay: Inhibition of OCT2-dependent metformin transport; format: cell-based
# [11] = most prominent effects, clinical; cited from earlier work
# MATE1 [12] = settings: read-out: Ki MATE1; cited from earlier work
# MATE2-K [13] = settings: read-out: Ki MATE2-K; cited from earlier work
Structure (SMILES),IC50 (OAT2) [nM],IC50 (OCT2 [1]) [nM],IC50 (OCT3) [nM],Concentration-dependent inhibition of OCT3-dependent transport (OCT3),IC50 (MATE1 [2]) [nM],IC50 (MATE2-K [3]) [nM],IC50 (MATE1 [4]) [nM],Increase in cobicistat accumulation in cells transfected with OCT2 (OCT2 [5]) [fold],Transporter-dependent uptake in primary proximal tubule cells [6],Inhibitor-sensitive accumulation in cells transfected with OAT3 (OAT3),Serum creatinine increases [7] [mg/dL],Maximum plasma concentration ([8]; clinical) [µmol/L],Renal elimination ([8]; in humans),Bound to plasma proteins [9],"Concentration-dependent inhibition of OAT2-dependent transport (OAT2; model substrate, curve could not be generated)",IC50 (OCT2 [10]) [nM],Decreases in creatinine clearance [11],Ki (MATE1 [12]) [nM],Ki (MATE2-K [13]) [nM]
"CC(C)c1nc(CN(C)C(=O)N[C@@H](CCN2CCOCC2)C(=O)N[C@H](CC[C@H](Cc2ccccc2)NC(=O)OCc2cncs2)Cc2ccccc2)cs1 [Cobicistat, cobicistat]",> 100000,24000 ± 4600,> 100000,lack of concentration-dependent inhibition,1870 ± 220,33500 ± 4200,990,2.9,small but reproducible decreases in accumulation in the presence of the transport inhibitors cimetidine or probenecid,no inhibitor-sensitive accumulation,~0.1,1.4,approximately 8%,over 90%,,,,,
"C[C@@H]1CCO[C@H]2Cn3cc(C(=O)NCc4ccc(F)cc4F)c(=O)c(O)c3C(=O)N12 [Dolutegravir, dolutegravir]",> 100000,66 ± 3,> 100000,lack of concentration-dependent inhibition,4670 ± 1110,> 100000,,,,,~0.1,,,,lack of concentration-dependent inhibition,110,,,
"CCc1nc(N)nc(N)c1-c1ccc(Cl)cc1 [Pyrimethamine, pyrimethamine]",,,,,,,,,,,,,,,,,15–34 ml/min per 1.73 m^2,93,59
